# Legend:
# [1] = test system: HBeAg (surrogate marker for cccDNA) in HepDES19 cells; assay: Engineered HepDES19 primary screen assay (HBeAg ELISA); type: cell-based, HBV; conditions: Hepatitis B virus, HepDES19, 120 h, read-out: IC50 (HBeAg level, HepDES19 primary screen assay), HepDES19 cells, 5 days compound incubation, HBeAg ELISA
# In short: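 IC50 values come from 4-parameter logistic fits of HBeAg ELISA signal, the cccDNA surrogate, with CCK-8 run in parallel for viability. Compounds at half-log dilutions with 1% DMSO were applied for 5 days at 37 °C to HepDES19 cells previously cultured 8 days without Tet.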
# [2] = test system: HBsAg in HBV-infected PHH; assay: Cryopreserved primary human hepatocytes (PHH) HBV infection assay, extracellular HBsAg (CLIA); type: cell-based; conditions: Hepatitis B virus, Hepatocyte, 216 h, read-out: HBsAg IC50, Cryopreserved PHH infected with HBV, 9 days post-compound treatment, extracellular HBsAg
# In short: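 Cryopreserved PHH were infected with 5.8×10^6 HBV genome equivalents in medium with 4% PEG8000 and 1% DMSO. After 9 days of treatment, extracellular HBsAg was measured by CLIA, and IC50 was derived from a 4-parameter logistic fit.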
compound,measurement,setting,value
"O=c1cc(-c2ccc(Br)cc2OCCO[C@H]2C[C@@H](C(=O)O)C2)oc2c(Cl)cccc12 [Example C003-A, Cis-3-[2-[5-bromo-2-(8-chloro-4-oxo-chromen-2-yl)phenoxy]ethoxy]cyclobutanecarboxylic acid]",IC50,[1],1.07 µM
same,IC50,[2],8.77 µM

# — US11708344B2, “Flavone derivatives for the treatment and prophylaxis of hepatitis B virus disease” (Hoffmann-La Roche Inc., priority 2018, dated 2023)
